Laboratory results published in article PMC13242721 (Angewandte Chemie (International ed. in English), 2024).
Starred links: 1 amine or outer side, 2 acyl side, 3 side chain; linkers in the order of their positions; H or OH if unused. Non-standard residues stand in square brackets, D forms with d. Residues, ends and D or L forms follow the SMILES beside them. *: point of attachment. Palmitoyl = CCCCCCCCCCCCCCCC(=O)*; AzaAla = CN(N[*:1])C(=O)[*:2]

Tests used:
GLP-1R [1] = target: T1, GLP-1R (Homo sapiens, UniProt P43220)
T1 sequence (P43220 24-463): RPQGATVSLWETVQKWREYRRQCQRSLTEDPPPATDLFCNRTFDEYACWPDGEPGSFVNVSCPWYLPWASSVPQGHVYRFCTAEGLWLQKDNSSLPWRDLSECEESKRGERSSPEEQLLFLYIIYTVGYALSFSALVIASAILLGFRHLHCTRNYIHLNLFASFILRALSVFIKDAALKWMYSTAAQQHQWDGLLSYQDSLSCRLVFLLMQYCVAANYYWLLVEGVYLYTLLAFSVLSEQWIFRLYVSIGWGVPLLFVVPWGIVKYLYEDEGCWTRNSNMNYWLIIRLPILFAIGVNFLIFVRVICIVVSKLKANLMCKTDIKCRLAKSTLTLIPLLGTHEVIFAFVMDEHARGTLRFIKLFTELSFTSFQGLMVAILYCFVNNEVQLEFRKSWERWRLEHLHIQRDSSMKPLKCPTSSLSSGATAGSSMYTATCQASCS

GLP-1R [2] = target: T1, GLP-1R; assay: cAMP luciferase reporter assay, GLP-1R agonism; format: cell-based
GIPR = target: T2, GIPR (Homo sapiens, UniProt P48546); assay: cAMP luciferase reporter assay, GIPR agonism; format: cell-based
T2 sequence (P48546 22-466): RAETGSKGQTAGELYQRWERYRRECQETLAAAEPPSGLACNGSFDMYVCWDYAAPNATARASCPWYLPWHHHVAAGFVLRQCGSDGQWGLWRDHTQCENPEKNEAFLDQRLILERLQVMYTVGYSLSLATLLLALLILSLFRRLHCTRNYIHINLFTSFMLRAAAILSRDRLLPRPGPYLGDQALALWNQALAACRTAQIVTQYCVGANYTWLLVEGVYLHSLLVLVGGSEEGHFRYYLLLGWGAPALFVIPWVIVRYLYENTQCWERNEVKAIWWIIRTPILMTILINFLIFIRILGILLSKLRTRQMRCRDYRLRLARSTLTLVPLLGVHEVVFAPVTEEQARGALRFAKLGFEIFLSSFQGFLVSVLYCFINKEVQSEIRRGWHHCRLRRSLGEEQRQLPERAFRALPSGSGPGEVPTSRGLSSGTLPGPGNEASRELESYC

GLP-1R [3] = target: T1, GLP-1R; conditions: alanine scanning of GLP-1; cited from earlier work

Row | Compound | Fold-Shift (↓) = (EC50 with DPP4)/(EC50 without DPP4) (GLP-1R [1]) | efficacy compared to native ligand (in words) (GLP-1R [2]) | EC50 (GIPR) [pM] | efficacy compared to native ligand (in words) (GIPR; GIPR, cAMP luciferase reporter assay) | adenylyl cyclase activity (in words) (GLP-1R [3])
1 | CCCCCCCCCCCCCCCC(=O)NCCCC[C@H](NC(=O)[C@H](CO)NC(=O)[C@@H]1CCCN1C(=O)[C@@H]1CCCN1C(=O)[C@@H]1CCCN1C(=O)[C@H](C)NC(=O)CNC(=O)[C@H](CO)NC(=O)[C@H](CO)NC(=O)[C@@H]1CCCN1C(=O)CNC(=O)CNC(=O)[C@H](C)NC(=O)[C@H](CC(C)C)NC(=O)[C@H](CC(C)C)NC(=O)[C@H](Cc1c[nH]c2ccccc12)NC(=O)[C@H](CC(N)=O)NC(=O)[C@@H](NC(=O)[C@H](Cc1ccccc1)NC(=O)[C@H](CCC(=O)O)NC(=O)[C@H](C)NC(=O)[C@H](C)NC(=O)[C@H](C)NC(=O)[C@H](CCC(N)=O)NC(=O)[C@H](CCCCN)NC(=O)[C@H](CC(=O)O)NC(=O)[C@H](CC(C)C)NC(=O)[C@H](Cc1ccc(O)cc1)NC(=O)[C@@H](NC(=O)[C@H](CO)NC(=O)[C@H](Cc1ccc(O)cc1)NC(=O)[C@H](CC(=O)O)NC(=O)[C@H](CO)NC(=O)[C@@H](NC(=O)[C@H](Cc1ccccc1)NC(=O)[C@@H](NC(=O)CNC(=O)[C@H](CCC(=O)O)NC(=O)N(C)NC(=O)[C@@H](N)Cc1ccc(O)cc1)[C@@H](C)O)[C@@H](C)O)[C@@H](C)CC)C(C)C)C(N)=O [DA X2AzaA, X20A] (H-Y[AzaAla]EGTFTSDYSIYLDKQAAAEFVNWLLAGGPSSGAPPPSK(Palmitoyl)-NH2; N-terminus and C-terminus assumed) | 1.0 | equiefficacious | 2.51 | equiefficacious | –
2 | Glu9Ala variant: literature alanine-scan variant of GLP-1 (HDEFERHAAGTFTSDVSSYLEGQAAKEFIAWLVKGRG; Glucagon-like peptide 1; UniProt P01275 92-128, looked up, variant E9A) | – | – | – | – | equivalent adenylyl cyclase activity
